≈ marks a conversion by molar mass, not a printed value. Where “and” joins values, the source holds several entries; their conditions need not be identical. Equal values may be shown once. Read-outs that look alike come from different tables or passages of the source.
Assays:
[1] = system: C. perfringens; format: cell-based, Clostridium perfringens
[2] = system: Methicillin-resistant S. aureus strain MRSA USA300
[3] = system: Clostridium perfringens (ATCC 13124)
[4] = system: Penicillium verrucosum (DSMZ 12639); details: DSMZ 12639, pH 7
[5] = system: Pseudomonas aeruginosa (ATCC CRM-9027)
[6] = system: A. ochraceus (DSMZ 824); details: DSMZ 824, pH 7
[7] = system: F. verticillioides (DSMZ 62264); details: DSMZ 62264, pH 7
[8] = system: Acinetobacter baumannii (CIP 110431)
[9] = system: HEK (human normal epidermal keratinocytes); details: 48 h
[10] = system: Candida albicans (DSMZ 10697); details: DSMZ 10697, 24 h, pH 7
[11] = design: key: -- indicates the absence of interaction; details: lipid monolayer on PBS pH 7.4, peptide 1 µM, extrapolated to delta pressure 0; -- = absence of interaction
Procedure: (§1) Peptide–lipid interaction was evaluated using reconstituted lipid monolayer at the air–water interface as previously described. Pure prokaryotic and eukaryotic lipids used were: POPC (1-palmitoyl-2-oleoyl-glycero-3-phosphocholine), POPE (1-palmitoyl-2-oleoyl-sn-glycero-3-phosphoethanolamine), POPG (1-palmitoyl-2-oleoyl-sn-glycero-3-phospho-(1’-rac-glycerol), and cardiolipin, all from Avanti Polar Lipid (Alabama, USA). LTA (Lipoteichoic acid from B. subtilis) was obtained from Invivogen SAS (Toulouse, France). Pure lipids were reconstituted in chloroform:methanol (2:1, v:v) at 1 mg/mL and stored at −20 °C under nitrogen. The interaction and insertion of the ENN and BEA into lipids were evaluated through the measurement of their critical pressure of insertion as previously described. Briefly, lipids were spread using a 50 µL Hamilton’s syringe at the surface of 800 µL of sterile PBS creating a lipid monolayer at the air–water interface. Lipids were added until the surface pressure reached the desired value. After 5–10 min of incubation allowing evaporation of the solvent and stabilization of the initial surface pressure, 8 µL of ENN or BEA diluted in sterile PBS at 100 µM were injected into the 800 µL sub-phase of PBS under the lipid monolayer (pH 7.4, volume 800 µL) using a 10 µL Hamilton syringe giving a final concentration of peptides of 1 µM, preliminary experiments having shown that this concentration gave optimal insertion. The variation of the surface pressure caused by peptide injection was then continuously monitored using a fully automated microtensiometer (µTROUGH SX, Kibron Inc., Helsinki, Finland) until reaching equilibrium (maximal surface pressure increase being usually obtained after 15–25 min). The critical pressure of insertion of each peptide was determined by changing the initial pressure of lipid monolayer (from 10 and 30 mN/m) and measuring the variation of pressure caused by the insertion of the peptide. The critical pressure of insertion of each peptide in a particular lipid was determined graphically and calculated as the theoretical value of initial pressure of lipid monolayer not permissive to peptide insertion, i.e., causing a variation of pressure equal to 0 mN/m.

[12] = system: Aspergillus flavus (DSMZ 1959); details: DSMZ 1959, pH 7
[13] = system: C. perfringens; format: cell-based, Clostridium perfringens; remark: listed apart in the source
[14] = system: F. oxysporum (DSMZ 62316); details: DSMZ 62316, pH 7
[15] = system: Escherichia coli (ATCC 8739)
[16] = system: human erythrocytes; details: pH 7.4
[17] = system: Vancomycin-resistant Enterococcus faecalis (DSMZ 13591)
[18] = lipid monolayer at air-water interface on PBS pH 7.4, peptide 1 µM, initial pressure 10-30 mN/m, extrapolated to delta pressure 0
Procedure: as §1

[19] = system: Stachybotrys chartarum (DSMZ 2144); details: DSMZ 2144, pH 7
[20] = system: N87 (human gastric cell line); details: 48 h
[21] = system: Nisin-resistant B. subtilis (DSMZ 347)
[22] = system: Mycobacterium smegmatis (mc2155, ATCC 700084); details: mc2155, 72 h
[23] = system: Bacillus subtilis (ATCC 6633)
[24] = system: Staphylococcus aureus (ATCC CRM-6538P)
[25] = system: C. perfringens; format: cell-based, Clostridium perfringens; remark: listed apart in the source
[26] = system: Fusarium graminearum (DSMZ 1095); details: DSMZ 1095, pH 7
[27] = system: Helicobacter pylori (ATCC 43504)
[28] = design: species or system B. subtilis; key: -- indicates the absence of interaction; details: lipid monolayer on PBS pH 7.4, peptide 1 µM, extrapolated to delta pressure 0; -- = absence of interaction
Procedure: as §1

[29] = system: A. niger (ATCC 9142); details: ATCC 9142, pH 7
[30] = C. perfringens, 5 x MIC, 4 h, 37 °C, anaerobic, FM4-64FX membrane and DAPI DNA staining, confocal microscope

For CC1(C)S[C@@H]2[C@H](NC(=O)[C@H](N)c3ccc(O)cc3)C(=O)N2[C@H]1C(=O)O [Amoxicillin, reference compound], the “Observed Morphology” value [1, 30] was “• Elongated cells (5–6 times compared to control) • Normally condensed DNA”.
With CC(C)[C@H]1OC(=O)[C@H](Cc2ccccc2)N(C)C(=O)[C@@H](C(C)C)OC(=O)[C@H](Cc2ccccc2)N(C)C(=O)[C@@H](C(C)C)OC(=O)[C@H](Cc2ccccc2)N(C)C1=O [BEA, Beauvericin] the “MIC, S. aureus MRSA” value [2] was 6.25 to 12.5 µM, the “MIC, C. perfringens” value [3] was 6.25 µM (≈ 4.9 µg/mL) and the “MIC, P. verrucosum” value [4] was greater than 100 µM. The “MIC, P. aeruginosa” value [5] was greater than 100 µM, the “MIC, A. ochraceus” value [6] was greater than 100 µM and the “MIC, F. verticillioides” value [7] was greater than 100 µM. For the same molecule, the “MIC, A. baumannii” value [8] was greater than 100 µM, the IC50 [9] was 5.4 ± 0.9 µM and the “MIC, C. albicans” value [10] was 6.25 µM (≈ 4.9 µg/mL). For the same molecule, the “critical pressure of insertion, POPG” value [11] was “--”, the “MIC, A. flavus” value [12] was greater than 100 µM and the “percentage of permeabilization at four times the MIC” value [13] was 1.8 ± 2.8%. For the same molecule, the “MIC, F. oxysporum” value [14] was greater than 100 µM, the “MIC, E. coli” value [15] was greater than 100 µM and the “HC50 (dose causing 50% hemolysis), Erythrocytes” value [16] was 118.9 ± 15.8 µM. For the same molecule, the “MIC, E. faecalis” value [17] was 12.5 µM (≈ 9.8 µg/mL), the Known/possible target [1] was “Protein biosynthesis” and the “Observed Morphology” value [1] was “• No cell elongation • DNA condensed in 1–4 circles per cells”. The “critical pressure of insertion, POPC” value [18] was 41.65 mN/m, the “critical pressure of insertion, POPE” value [18] was 32.46 mN/m and the “MIC, S. chartarum” value [19] was greater than 100 µM. For the same molecule, the IC50 [20] was 27.5 ± 0.7 µM, the “MIC, B. subtilis NR” value [21] was 6.25 to 12.5 µM and the “MIC, M. smegmatis” value [22] was 25 µM (≈ 19.6 µg/mL). For the same molecule, the “MIC, B. subtilis” value [23] was 6.25 to 12.5 µM, the “MIC, S. aureus” value [24] was 12.5 µM (≈ 9.8 µg/mL) and the “membrane depolarization at 100 µM” value [25] was 59.1 ± 2.0%. The “membrane depolarization at four times their MIC” value [25] was 63.8 ± 4.8%, the “membrane depolarization at their MIC” value [25] was 38.3 ± 3.3% and 30–40% and the “MIC, F. graminearum” value [26] was 25 µM (≈ 19.6 µg/mL). The “MIC, H. pylori” value [27] was greater than 100 µM, the “critical pressure of insertion, LTA” value [28] was “--” and the “MIC, A. niger” value [29] was greater than 100 µM.
In the case of CO/N=C1\CN(c2nc3c(cc2F)c(=O)c(C(=O)O)cn3C2CC2)CC1CN (stereo not shown) [Gemifloxacin, reference compound], the “Observed Morphology” value [1, 30] is reported as “• Elongated cells (5–6 times compared to control) • Decondensed DNA • Chain formation”.
For CN(C)[C@@H]1C(O)=C(C(N)=O)C(=O)[C@@]2(O)C(O)=C3C(=O)c4c(O)cccc4[C@@](C)(O)[C@H]3C[C@@H]12 [Tetracycline, reference compound], the “Observed Morphology” value [1, 30] was “• Some cell elongation (1.5–2 times compared to control) • DNA condensed in 1–4 circles per cells”.
In the case of CO[C@H]1/C=C/O[C@@]2(C)Oc3c(C)c(O)c4c(O)c(c(/C=N/N5CCN(C)CC5)c(O)c4c3C2=O)NC(=O)/C(C)=C\C=C\[C@H](C)[C@H](O)[C@@H](C)[C@@H](O)[C@@H](C)[C@H](OC(C)=O)[C@@H]1C [Rifampicin, reference compound], the “Observed Morphology” value [1, 30] is reported as “• No cell elongation • DNA condensed in one filament crossing the cells”.
